Results: patent US9902783B2, “Antibodies and pharmaceutical compositions containing same useful for inhibiting activity of metalloproteins” (Yeda Research and Development Co. Ltd., priority 2007, dated 2018)

Tests used:
metastasis = conditions: phase III, advanced cancer patients; cited from earlier work
[1] = patients; cited from earlier work
MT1-MMP = MT1-MMP (Homo sapiens, UniProt P50281); conditions: cited from earlier work
[2] = test system: cell surface gelatinolytic activity of HT1080 cells; assay: in situ zymography with DQ-gelatin; type: cell-based, human; conditions: 15 μM SB-3CT
Experimental: To localize net gelatinolytic activity of MMPs by in situ zymography, fluorescein isothiocyanate-labeled DQ gelatin that is intramolecularly quenched (Molecular Probes) was used as a substrate for degradation by gelatinases. Proteolysis by gelatinases yields cleaved fluorescein isothiocyanate-gelatin peptides and the localization of this fluorescence indicates the sites of net gelatinolytic activity. Briefly, Human fibrosarcoma HT1080 cells (which produce MMP-2, MMP-9 and MT1-MMP) were plated on 12-mm coverslips. […] Untreated cells served as negative control for this experiment. Cells were washed with PBS and then incubated with zymography reaction buffer (0.05 M Tris-HCl, 0.15 M NaCl, 5 mM CaCl2, and 0.2 mM NaN3, pH 7.6, the high concentration of azide prevented the gelatin from being phagocytosed and thus allowing cell surface gelatinolytic activity to occur) containing 60 ug/ml DQ gelatin at 37° C. overnight. […] At the end of the incubation period, without fixation or further washes, gelatinolytic activity of the MMPs was localized and photographed by fluorescence microscopy and images were acquired by Spot digital camera.
To confirm the inhibitory activity of anti CoTCPP mAb at cellular level, the effect of the antibody was examined on gelatinolytic activity of human fibrosarcoma HT1080 cells that constitutively secrete MMP-2 and 9 by in situ zymography. To localize gelatinolytic activity of MMPs by in situ zymography, fluorescein isothiocyanate-labeled gelatin that is intramolecularly quenched (DQ-gelatin) was used as substrate. Proteolysis by gelatinases yields cleaved fluorescein isothiocyanate-gelatin peptides and the localization of this fluorescence indicates the sites of net gelatinolytic activity.

[3] = peptide-based hydroxamate; cited from earlier work
MMP-2 = assay: kinetic assay with fluorogenic peptide substrate, MMP-2; type: biochemical, human
TACE (ADAM-17) = TACE (ADAM-17) (Homo sapiens, UniProt P78536); assay: kinetic assay with fluorogenic peptide QF-45, TACE; type: biochemical; conditions: Table 4
Sequence of TACE (ADAM-17) (P78536 215-824, species assumed): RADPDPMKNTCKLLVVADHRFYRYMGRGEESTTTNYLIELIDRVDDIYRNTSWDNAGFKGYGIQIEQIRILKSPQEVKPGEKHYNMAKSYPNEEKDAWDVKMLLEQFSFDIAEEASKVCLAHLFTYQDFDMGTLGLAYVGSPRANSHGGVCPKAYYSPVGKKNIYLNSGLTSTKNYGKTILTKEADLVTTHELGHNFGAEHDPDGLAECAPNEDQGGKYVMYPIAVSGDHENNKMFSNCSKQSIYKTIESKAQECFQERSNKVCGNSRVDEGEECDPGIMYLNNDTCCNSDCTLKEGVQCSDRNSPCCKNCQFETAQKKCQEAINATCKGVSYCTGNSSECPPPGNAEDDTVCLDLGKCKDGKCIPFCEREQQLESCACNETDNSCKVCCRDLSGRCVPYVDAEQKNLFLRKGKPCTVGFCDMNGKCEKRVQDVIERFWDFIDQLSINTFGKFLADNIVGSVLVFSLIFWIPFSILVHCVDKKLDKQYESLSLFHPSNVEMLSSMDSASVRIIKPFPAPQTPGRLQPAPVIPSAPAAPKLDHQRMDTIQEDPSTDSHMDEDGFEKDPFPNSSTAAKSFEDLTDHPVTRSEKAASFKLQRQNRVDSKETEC

[4] = competitive ELISA, affinity of mAbs toward their immunizing hapten; conditions: concentration of soluble hapten for 50% binding
Experimental: Supernatants of the growing hybridomas were screened for antibodies reactive with ZnTCPP, CoTCPP or Imisdp using direct ELISA in which respective hapten-BSA (3 μg/ml in PBS) was coated to Nunc maxisorp plates. The coating was performed at 4° C. overnight and incubation with antibodies at 20° C. for 1 h. HRP-conjugated anti-mouse mAb (Sigma) was used as the secondary antibody and 2,2′-azino-bis (3-ethylbenzthiazoline-6-sulphonic acid, ABTS, Sigma) was used as substrate. PBS containing 0.005% v/v Tween 20 (PBST) was used as washing reagent. The dilution buffer was PBS. A602 was recorded by microplate reader in […]luor Plus spectrometer (Tecan, Austria). As control supernatants were incubated with BSA coated plates in the same manner Absorbance values above 0.5 millioptical density were considered as positive.
Different dilutions of hybridoma supernatant were incubated with hapten-BSA coated plates following the steps described earlier. Titration curve was plotted and the titer dilution was determined at 50% of binding. Supernatants diluted to the titer concentration were preincubated with soluble ZnTCPP, CoTCPP or Imisdp compounds for 30 minutes and then transferred to hapten-coated microtiter plates following the steps described previously. The estimated dissociation constant was the concentration of soluble hapten required to attain 50% binding.

MMP-9 = assay: kinetic assay with fluorogenic peptide substrate, MMP-9; type: biochemical, human
Sequence of MMP-9 (P14780 107-444 limits assumed): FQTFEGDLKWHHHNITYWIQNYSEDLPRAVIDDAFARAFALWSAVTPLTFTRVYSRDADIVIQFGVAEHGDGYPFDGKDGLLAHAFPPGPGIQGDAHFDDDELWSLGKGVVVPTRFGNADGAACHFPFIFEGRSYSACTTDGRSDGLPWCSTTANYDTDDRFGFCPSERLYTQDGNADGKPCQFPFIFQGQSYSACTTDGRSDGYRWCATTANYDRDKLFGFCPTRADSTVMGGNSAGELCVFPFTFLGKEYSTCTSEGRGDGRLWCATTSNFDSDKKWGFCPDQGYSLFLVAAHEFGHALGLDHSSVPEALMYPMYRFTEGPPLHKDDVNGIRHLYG

MT1-MMP (MMP-14) = MT1-MMP (MMP-14) (Homo sapiens, UniProt P50281); assay: kinetic assay with fluorogenic peptide substrate, MT1-MMP; type: biochemical; conditions: Table 4

For `O=C(C[C@H](CSc1ccccc1)C(=O)O)c1ccc(-c2ccc(Cl)cc2)cc1` [BAY12-9566], the “clinical efficacy in inhibiting metastasis” value (metastasis) is given as “no clinical efficacy” and the severe side effects [1] is given as “liver abnormalities, anemia, shoulder and back pain, thrombocytopenia, nausea, fatigue, diarrhea and deep vein thrombosis”.

In the case of `COc1ccc(S(=O)(=O)N(Cc2cccnc2)[C@@H](C(=O)NO)C(C)C)cc1` [CGS27023A], the severe side effects [1] is given as “widespread maculopapular rash”.

For `O=S(=O)(CC1CS1)c1ccc(Oc2ccccc2)cc1` (stereo not drawn) [SB-3CT, reference compound], the Ki (MT1-MMP) is given as 0.11 µM and the “cell surface gelatinolytic activity” value [2] is given as “inhibition observed”.

For `CNC(=O)[C@H](Cc1ccccc1)NC(=O)[C@H](CC(C)C)[C@H](CSc1cccs1)C(=O)NO` [batimastat], the “metabolic stability and oral bioavailability” value [3] is given as “low”.

In the case of `CNC(=O)[C@@H](NC(=O)[C@H](CC(C)C)[C@H](O)C(=O)NO)C(C)(C)C` [marimastat], the “clinical efficacy in inhibiting metastasis” value (metastasis) is given as “no clinical efficacy” and the severe side effects [1] is given as “muscoloskeletal problems”.

B1: 15E12: monoclonal antibody, IgG2a, raised against the hapten ZnTCPP (antibody)
heavy: EGPGLVAPSQSLSITCTVSGISLSSYDISWIRQPPGKGLEWLGVMETWSGGGTENYNSAFMETSRLSISKDNSKRQVFLNMETNSVQIDDTATYYCIGRLHYYGYWFLDVWDQG
light: EMETTQTPLSLPVSLGDQASISCRSSQSIVQSNGNTYLDWYLQKPGQSPKLLIYKVSNERFSGVPDRFSGSGSGTDFTLKISRVEADDLGVYYCFQGSHVPYTFGGG
modifications: 15E12 mAb heavy chain; 15E12 mAb light chain
notes: monoclonal antibody, IgG2a, raised against the hapten ZnTCPP
In the case of B1, the IC50 (MMP-2; Table 4) is reported as over 30 µM, the “inhibition of proteolytic activity of MMP-2” value (MMP-2; continuous fluorometric assay) is reported as “did not show inhibitory effect” and the IC50 (TACE (ADAM-17)) is reported as over 30 µM. For the same molecule, the Kd [4] was 0.01 µM, the IC50 (MMP-9; Table 4) was over 30 µM and the “inhibition of proteolytic activity of MMP-9” value (MMP-9; continuous fluorometric assay) was “did not show inhibitory effect”. The IC50 (MT1-MMP (MMP-14)) was over 30 µM.
